According to article PMC6219699 (Nuclear medicine communications, 2011):

Molecular target: T1, human sodium/iodide symporter (hNIS) (Homo sapiens, UniProt Q92911)
T1 sequence (Q92911 1-643): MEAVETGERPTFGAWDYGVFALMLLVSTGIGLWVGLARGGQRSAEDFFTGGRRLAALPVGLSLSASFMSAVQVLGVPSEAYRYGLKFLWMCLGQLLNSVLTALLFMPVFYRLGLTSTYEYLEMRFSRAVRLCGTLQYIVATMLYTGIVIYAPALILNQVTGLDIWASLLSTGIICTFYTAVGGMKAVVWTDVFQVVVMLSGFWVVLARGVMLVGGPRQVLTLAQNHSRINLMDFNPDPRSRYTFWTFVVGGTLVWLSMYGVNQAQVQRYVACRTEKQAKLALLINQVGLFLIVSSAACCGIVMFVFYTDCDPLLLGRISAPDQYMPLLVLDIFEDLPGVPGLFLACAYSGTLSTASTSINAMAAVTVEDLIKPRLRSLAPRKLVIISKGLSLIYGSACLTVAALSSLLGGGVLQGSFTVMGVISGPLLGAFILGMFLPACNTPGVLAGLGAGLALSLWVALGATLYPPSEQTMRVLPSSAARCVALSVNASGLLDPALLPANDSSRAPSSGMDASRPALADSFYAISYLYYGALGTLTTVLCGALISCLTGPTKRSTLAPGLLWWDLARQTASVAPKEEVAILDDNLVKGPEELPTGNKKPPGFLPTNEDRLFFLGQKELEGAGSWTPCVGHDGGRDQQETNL
Type: cell-based

SMILES: F[B-](F)(F)F [tetrafluoroborate]
- IC50: 740 nM
